Patent US20070015183A1, “Biomarkers for huntington's disease” (The General Hospital Corporation, priority 2005, published 2007)

Experiments:
[1] = system: transgenic mouse models of HD; conditions: Gardian et al., J. Biol. Chem. 280: 556-563, 2005; cited from earlier work
[2] = HD patients, as a result of phenylbutyrate treatments
Excerpt: (§1) Peripheral blood samples were collected from 62 HD subjects and 53 age- and gender-matched healthy controls. The HD group included a cohort of 9 early asymptomatic carriers of the gene mutation, as determined by genetic testing, consisting of 5 females and 4 males with the average age of 22.5±2.6 years. An additional group of 21 late presymptomatic carriers of the HD mutation was also included in the study. Of these, 11 were females and 10 were males with the average age of 39±6.1. An additional 32 patients were symptomatic, 17 females and 15 males, with the average age of 49.6±5.9. The determination of the neurological status of the HD patients utilized the Huntington's Disease Rating Scale (UHDRS) performed by an experienced HD neurologist. All of the symptomatic patients were in Stage I or II of disease, as determined by the total functional capacity scores (TFC 7-12). All samples were obtained in accordance with the Institutional Review Boards and participants gave written informed consent. Blood samples were also obtained from 12 symptomatic patients (7 males and 5 females) participating in a dose-finding study of the HDAC inhibitor, sodium phenylbutyrate (SPB 11, Scandinavian Designs, Sellersville, Pa.) at Oregon Health and Science University. The dosage of sodium phenylbutyrate in these subjects ranged from 12 to 18 grams per day administered in 3 doses.

[3] = system: 12-gene marker set (ANXA1, AXOT, CAPZA1, HIF1A, JJAZ1, P2Y5, PCNP, ROCK1, SF3B1, SP3, TAF7, YIPPEE) mRNA in blood; conditions: 12 HD patients, after 4 weeks of treatment, QRT-PCR, P<0.05
Excerpt: as §1

[4] = system: Huntington's disease symptoms; conditions: HD patients, dose-finding study not powered to detect alterations in symptoms or progression
Excerpt: as §1

Q: With `O=C([O-])CCCc1ccccc1.[Na+]` [phenylbutyrate, sodium phenylbutyrate] as the molecule, how does the neuroprotective effects [1] read?
A: significant neuroprotective effects

Q: And the “total and differential cell blood counts” value [2]?
A: no consistent differences

Q: What about the “expression of each individual gene of the marker set in blood after treatment compared to untreated samples” value [3] of the same molecule?
A: 8 out of 12 genes were significantly decreased and statistically significant decrease in expression of 8 out of 12 genes

Q: What about the symptomatic effects [4] of the same molecule?
A: no significant symptomatic effects
